Data on one molecule can be found in publication PMC7217877, “N-AS-triggered SPMs are direct regulators of microglia in a model of Alzheimer’s disease” (Nature Communications, 2020).

Each structure is given as a SMILES string. Where “and” joins values, the source holds several entries; their conditions need not be identical. Equal values may be shown once. Read-outs that look alike come from different tables or passages of the source.

One series has as its system APP/PS1 mice. Put plainly: mRNA levels of NEP, MMP9, IDE, CD36 in microglia (Supplementary Fig 5c). It counts as in vivo, mouse. Set-up: CD36 mRNA level in microglia / NEP mRNA level in microglia / MMP9 mRNA level in microglia / IDE mRNA level in microglia: scale not given here. How it is done:
Transgenic mouse lines over-expressing the hAPP695swe (APP) and presenilin-1M146V (PS1) mutations were originated from GlaxoSmithKline (Harlow, UK)[32] and maintained as described previously. We purchased 5×FAD mice from Jackson Labs (Stock number. 34840-JAX). Because APP/PS1 and 5xFAD mice show sex differences in disease progression, we used only male mice. To examine possible therapeutic effect of N-AS and aspirin in APP/PS1 mice, the N-AS (30 mg kg^−1, Sigma-Aldrich, 01912) was injected daily s.c. for 8 weeks to 7-months-old APP/PS1 mice until the age of 9 months, and aspirin (2 mg kg^−1, Sigma-Aldrich, A5376)[33] was administrated orally to 7-months-old APP/PS1 mice for 8 weeks. Also, to confirm possible therapeutic efficacy of N-AS in 5×FAD, the N-AS (30 mg kg^−1, Sigma-Aldrich, 01912) was injected daily s.c. for 4 weeks to 3-months-old 5×FAD mice until the age of 4 months. Block randomization method was used to allocate the animals to experimental groups. To eliminate the bias, we were blinded in experimental progress such as data collection and data analysis. Mice were housed at temperature of 22 °C and a 12 h day/12 h night cycle with free access to tap water and food pellets. All protocols were approved by the Kyungpook National University Institutional Animal Care and Use Committee.
For total RNA extraction from the microglia derived from WT, APP/PS1, APP/PS1 mice treated with N-AS, and APP/PS1 mice treated with aspirin, the cells were isolated from the cortex of WT, APP/PS1, APP/PS1 mice treated with N-AS, or aspirin using the methods described above. Total RNA was isolated using the kit components according to the manufacturer’s instructions (RNeasy mini kit, 74134, QIAGEN). cDNA was synthesized from 5 μg of total RNA using a commercially available kit (Takara). Quantitative real-time PCR was performed using a Corbett research RG-6000 real-time PCR instrument. Primers are described in Supplementary Table 5.

Series [1] is described as follows: single-dose brain PK and brain distribution. It counts as in vivo, C57BL/6 mice. Particulars: mouse; for Kp / MRT / half-life / AUC(0-inf) / AUC(0-t): C57BL/6, brain; for AUC(0-inf): read-out: AUCinf (Brain); for AUC(0-t): read-out: AUClast (Brain). How it is done:
C57BL/6 mice were administered N-AS (Sigma-Aldrich, 01912) at doses of 1 mg kg^−1 (i.v.) or 10 mg kg^−1 (p.o.). Venous blood samples were collected at 5, 15, and 30 min, and 1, 2, 4, 8, and 24 h postdose. A 30 μl of plasma was separated from whole blood by centrifugation and stored at −80 °C until analysis. Also, brain samples were collected at 1, 2, 4, and 24 h postdose and heart, liver, and kidney samples were collected at 24 h postdose, thoroughly rinsed with physiological saline and weighed. Twenty percentage of tissue homogenates were prepared by homogenizing the tissue samples with four volumes of saline. A 30 μl aliquot of plasma or a 50 μl aliquot of tissue homogenates were deproteinized by addition of 200 μl cold methanol (containing naringenin as internal standard at 20 ng ml^−1) and centrifuged at 15,974×g for 10 min. A 10 μl aliquot of the supernatant was injected into Agilent 6470 LC-MS/MS system. Separation was performed on a Synergy Polar RP column (4 μm particle size, 2.0 mm ×150 mm, Phenomenex) using a mobile phase that consisted of methanol and water (85:15, v/v) with 0.1% formic acid at a flow rate of 0.2 ml min^−1. Quantification was carried out using multiple reaction monitoring (MRM) at m/z 340.3→263.3 for N-AS and m/z 271.1→151.3 for naringenin (internal standard) in negative ionization mode and collision energy of 20 eV. p, and relative oral BA values were calculated as follows: BA% = AUCp.o. normalized by p.o. dose/AUCi.v. normalized by i.v. dose × 100.

Setting [2] is: APP/PS1 + N-AS, individual values, sFig 5c.

Usually MRT stands for a mean duration of stay, worked out from the concentration-time curve. The half-life is the time needed for the level to fall by half in the phase considered. For `CCCCCCCCCCCCC/C=C/[C@@H](O)[C@H](CO)NC(C)=O` [N-AS, N-((2S,3R,E)-1,3-Dihydroxyoctadec-4-en-2-yl)acetamide], in the series on APP/PS1 mice (setting [2]), the “CD36 mRNA level in microglia” value is 0.97 and 0.75 and 0.78 and 0.69 and 0.81 and 0.87 and 0.79 and 0.61; the “IDE mRNA level in microglia” value is 0.68 and 0.56 and 0.55 and 0.48 and 0.82 and 0.81 and 0.71 and 0.78 and 0.77; the “MMP9 mRNA level in microglia” value was 0.87 and 0.47 and 0.35 and 0.38 and 0.69 and 0.52 and 0.57 and 1.05 and 0.8; the “NEP mRNA level in microglia” value is 0.96 and 0.5 and 0.52 and 0.57 and 0.56 and 0.59 and 0.64 and 0.85 and 0.88. Moreover, in the series on APP/PS1 mice (APP/PS1 treated with N-AS), the CD36 expression entry is “enhanced”. Further, in the series on APP/PS1 mice (WT, APP/PS1 vehicle, APP/PS1 N-AS), the “expression of Aβ degrading enzymes (NEP, MMP9, IDE)” value is “remained unchanged between the groups”. Besides, in series [1] (iv, i.v. 1 mg/kg), the Kp was 2.16, the MRT amounted to 6.94 ± 0.62 h, the half-life was 6.31 ± 0.38 h and the AUC(0-inf) turned out to be 1440 ± 228 ng·h/mL. For the same molecule, the AUC(0-t) in series [1] (iv, i.v. 1 mg/kg) was found to be 1340 ± 224 ng·h/mL. In series [1] (po, p.o. 10 mg/kg), the Kp is 3.18, the MRT came to 8.64 ± 1.01 h, the half-life is 22 ± 6.07 h and the AUC(0-inf) was found to be 1750 ± 362 ng·h/mL. The AUC(0-t) in series [1] (po, p.o. 10 mg/kg) stood at 895 ± 60.5 ng·h/mL. Moreover, the “Cmax (Brain)” value in series [1] (i.v. 1 mg/kg) is 165.18 ± 18.42 ng/mL. Besides, the “Cmax (Brain)” value in series [1] (p.o. 10 mg/kg) amounted to 90.27 ± 2.95 ng/mL.
